The values that follow come from patent US5334595A, “Pyrazoloquinolones as anticancer agents” (priority 1992, dated 1994).

Some results are limits rather than exact numbers.

The subject of data set [1] is P388 murine leukemia cells. As to the kind of experiment: In vitro cytotoxicity, continuous (48-hour) exposure of P388 cells. It is filed as cell-based. As to conditions: Mus musculus; P388, continuous exposure (48-hour); read-out: in vitro cytotoxicity IC50, cont. exp. Here is the method:
(§1) In vitro cytotoxicity was assayed by determining cell survival following exposure of P388 murine leukemia cells to a range of test compound concentrations. Cytotoxicity was quantitated following either a one-hour exposure or continuous exposure of P388 cells to test compound.
(§2) A Manual of Basic Technique. […] Briefly, following drug exposure cells were plated in soft agar and incubated (37°, 5% CO2) for 7-10 days during which time viable cells form visible colonies. Cytotoxicity following continuous exposure of cells to test compound was assayed by quantitating total P388 cells on a Coultier Counter following a 48-hour co-incubation of test compound with cells. P388 cells were maintained in log phase throughout the duration of cytotoxicity assays.
(§3) The percentage of cells surviving relative to an untreated control was graphed as a function of increasing drug concentration.

The next data set addresses T1, human topoisomerase II (Homo sapiens, UniProt P11388).
T1 construct: Topo II was purified from late log phase suspension cultures of HeLa WIS; endogenous in cells; host or cells: HeLa WIS
As to the kind of experiment: Mammalian topoisomerase II inhibition assay (topo II covalently attached to DNA, relative to mAMSA). In kind it is biochemical. Conditions: conc. achieving 50% of maximal effect of mAMSA; topo II from HeLa cells; read-out: topo II inh. EC50. The text has this:
The inhibition of human topoisomerase II (hereafter topo II) was quantitated by a procedure adapted from that described by Trask et al., EMBO J., 3, 671-676 (1984). The assay quantitates the amount of topo II covalently attached to DNA at equilibrium during a topo II reaction. This assay determines the potential of a compound to stabilize this complex, which potential is closely related to the cytotoxicity of the compound.
Topo II was purified from late log phase suspension cultures of HeLa WIS by an adaptation of the method described by Per et al., Mol. Pharmacol., 32, 17-25 (1987).
Assays (in duplicate) were assembled at 4° C. Assay mix (25 μl) was distributed in Beckman (No. 265270) 1.5 mL microtiter tubes followed by the addition of 5 μl test compound to yield the final concentrations of assay components:
The assay mix including the test compound was incubated for 20 minutes at 37° C. The reaction was terminated at 37° C. by the addition of 3 μl 10% SDS followed by the addition of 266 μl 10 mM Tris-Cl pH 7.5, 20 μg/ml BSA, 20 μg/ml calf thymus DNA, 1% SDS.
A SDS/protein precipitate was formed by the addition of 28 μl 2.5M KCl followed by chilling on ice for a minimum of 10 minutes. The precipitate was collected and washed with a Brandell cell harvester on a GFB glass fiber filter membrane as follows. The contents of the assay tube were drawn up into the harvester. The tube was then rinsed 7× with 10 mM Tris-Cl pH 7.5, 1 mM EDTA and 100 mM KCl. The precipitate was washed with 1 L of a solution of 10 mM Tris-Cl pH 7.5, 1 mMEDTA, 100 mM KCl followed by 1 L of 95% ethyl alcohol and finally 0.5 L 70% of ethyl alcohol (per 48 samples in each case). After drying, CPM was determined by liquid scintillation counting with 5 ml Biofluor (NEN Research Products) or Readisafe (Beckman Instruments Inc.) cocktail.
Preparation of test compound--A stock solution (6 mg/ml) of test compound was prepared either in 0.1N sodium hydroxide or 0.2N hydrogen chloride. This solution then was diluted 1/5 into water and serially thereafter in either 0.02N sodium hydroxide or 0.04N hydrogen chloride, respectively. The stock solution and serial dilution of the test compound was stored at -20° C. prior to testing.
Screening of test compound--As an initial screen, the test compound was tested at a final concentration of 2, 20 and 200 μg/ml. The compound was then retested at a range of concentrations (usually 2-3×steps) bridging their approximate EC50 's, as estimated by the prescreen.
Controls--A solvent control which indicates the base level of topo II-DNA complex formed in the absence of the test compound was included in each test. A control, in which topo II was omitted, was included for each test compound at the highest drug concentration tested.
Reference Agent--A dose response curve with mAMSA at 0.01, 0.08, 0.16, 0.32, 1.0 and 10 μg/ml was included in each test.
The maximal DNA-topo II complex formed is taken as that equal to that formed at the nearly saturating dose of mAMSA (10 μg/ml).

A short description of data set [2]: In vivo antitumor assay, Panc03(sc). The arrangement: species or system mice. Conditions: mouse, in vivo, MTD. The text has this:
Mice: Inbred: C3H/He and NCR-nu; and Hybrids: B6D2F1 (C57BL/6 females×DBA/2 males, CD2F1 (Balb/c females×DBS/2 males) and B6C3fl (C57BL/6×C3H) were bred at Wayne State University from strains obtained from the Frederick Cancer Research Facility, Frederick, Maryland or purchased from commercial suppliers.
Tumors: Murine Tumor: P388 and an adriamycin-resistant (ADR) subline P388/ADR leukemia and the following transplantable solid tumors of mice were used for in vivo testing: B16 melanoma (B16), pancreatic ductal adenocarcinoma No. 03 (Pane 03), colon adenocarcinoma No. 38 (colo 38), lung carcinoma No. 12 (LC 12), mammary ductal adenocarcinoma No. 16/C (Mam16C) and an adriamycin-resistant subline Mam16C/ADR. Human tumor: A single human tumor, mammary carcinoma MX-1 was used for in vivo testing. All tumors are in the Developmental Therapeutics Program frozen tumor respository, maintained by the Biological Testing Branch, Frederick Maryland. Each has a detailed description, code identification number, and list of references at the National Tumor Repository. Murine tumors were maintained in the mouse strain of origin and were transplanted in the appropriate F1 hydrid (or the strain of origin) for therapy trials. Human mammary carcinoma MX-1 (MX1) was maintained as a subcutaneous implant in either athymic Swiss (Cr: NIH(S)-nu) or athymic random bred (NCR-nu) mice and transplanted in NCR-nu for therapy trials.
Chemotherapy: For pancreatic ductal adenocarcinoma No. 3, colon adenocarcinoma No. 38 (colo 38), lung carcinoma No. 12 LC 12) and both adriamycin-sensitive (RP) and-resistant (ADR) mammary ductal adenocarcinoma No. 16 (Mam16) tumors, bilateral tumor implants were used to help ensure a more uniform tumor burden per mouse (thus reducing the requirement for greater numbers of mice per group). The animals necessary to begin an experiment were pooled, implanted bilaterally s.c. on day zero with 30-60 mg tumor fragments using a 12-gauge trocar, and again pooled before randomization to the various treatment and control groups. Chemotherapy was started within three days after tumor implantation while the number of cells per mouse was relatively small (1×10^7 -1×10^8 cells).
Quantitative end points used to assess antitumor activity included % Increased Life Span (% ILS), Tumor Cell Kill (Log10 kill), and Tumor Growth Inhibition (T/C). Long Term Survivors (45 or 60 day) were excluded from calculations of %ILS and Tumor Cell Kill.
The log10 cell kill was calculated from the following formula: [formula] where T-C is the tumor difference in the median day of death between the treated (T) and the control (C) groups and Td is the tumor doubling time (in days), the latter estimated from the best fit straight line from a log-linear growth plot of the control-group tumors in exponential growth. The conversion of the T-C values to log10 cell kill is possible because the Td for tumors regrowing post-treatment approximated the Td values of the tumors in untreated control mice.
Tumors were measured with a caliper once or twice weekly (as needed) until either tumors exceeded 1600 mg or cure was assured. Tumor weights were estimated from two-dimensional measurements: Tumor Weight (mg)=(a×b^2) / 2, where a and b are the tumor length and width (ram) respectively. Measurements were carried out simultaneously in both treatment and control groups. When the control group tumors reached approximately 750-1500 mg in size (median of group), the median tumor weight of each group was determined (including zeros). The T/C value in percent is an indication of antitumor effectiveness. The % T/C was calculated from the following formula for solid murine tumor models: [formula] where T and C are median tumor weights of the treatment and control groups, respectively. A T/C equal to or less than 42% is considered significant antitumor activity. […]

Data set [3] deals with P388 murine leukemia cells. Kind of data set: In vitro cytotoxicity, one-hour exposure, clonogenic survival of P388 cells. Conditions: Mus musculus, read-out: in vitro cytotoxicity IC50, 1 hr exp.; P388, 1 hr exposure. It is filed as cell-based. Here is the method:
as §1, §2, §3

T1 sequence (P11388 whole entry): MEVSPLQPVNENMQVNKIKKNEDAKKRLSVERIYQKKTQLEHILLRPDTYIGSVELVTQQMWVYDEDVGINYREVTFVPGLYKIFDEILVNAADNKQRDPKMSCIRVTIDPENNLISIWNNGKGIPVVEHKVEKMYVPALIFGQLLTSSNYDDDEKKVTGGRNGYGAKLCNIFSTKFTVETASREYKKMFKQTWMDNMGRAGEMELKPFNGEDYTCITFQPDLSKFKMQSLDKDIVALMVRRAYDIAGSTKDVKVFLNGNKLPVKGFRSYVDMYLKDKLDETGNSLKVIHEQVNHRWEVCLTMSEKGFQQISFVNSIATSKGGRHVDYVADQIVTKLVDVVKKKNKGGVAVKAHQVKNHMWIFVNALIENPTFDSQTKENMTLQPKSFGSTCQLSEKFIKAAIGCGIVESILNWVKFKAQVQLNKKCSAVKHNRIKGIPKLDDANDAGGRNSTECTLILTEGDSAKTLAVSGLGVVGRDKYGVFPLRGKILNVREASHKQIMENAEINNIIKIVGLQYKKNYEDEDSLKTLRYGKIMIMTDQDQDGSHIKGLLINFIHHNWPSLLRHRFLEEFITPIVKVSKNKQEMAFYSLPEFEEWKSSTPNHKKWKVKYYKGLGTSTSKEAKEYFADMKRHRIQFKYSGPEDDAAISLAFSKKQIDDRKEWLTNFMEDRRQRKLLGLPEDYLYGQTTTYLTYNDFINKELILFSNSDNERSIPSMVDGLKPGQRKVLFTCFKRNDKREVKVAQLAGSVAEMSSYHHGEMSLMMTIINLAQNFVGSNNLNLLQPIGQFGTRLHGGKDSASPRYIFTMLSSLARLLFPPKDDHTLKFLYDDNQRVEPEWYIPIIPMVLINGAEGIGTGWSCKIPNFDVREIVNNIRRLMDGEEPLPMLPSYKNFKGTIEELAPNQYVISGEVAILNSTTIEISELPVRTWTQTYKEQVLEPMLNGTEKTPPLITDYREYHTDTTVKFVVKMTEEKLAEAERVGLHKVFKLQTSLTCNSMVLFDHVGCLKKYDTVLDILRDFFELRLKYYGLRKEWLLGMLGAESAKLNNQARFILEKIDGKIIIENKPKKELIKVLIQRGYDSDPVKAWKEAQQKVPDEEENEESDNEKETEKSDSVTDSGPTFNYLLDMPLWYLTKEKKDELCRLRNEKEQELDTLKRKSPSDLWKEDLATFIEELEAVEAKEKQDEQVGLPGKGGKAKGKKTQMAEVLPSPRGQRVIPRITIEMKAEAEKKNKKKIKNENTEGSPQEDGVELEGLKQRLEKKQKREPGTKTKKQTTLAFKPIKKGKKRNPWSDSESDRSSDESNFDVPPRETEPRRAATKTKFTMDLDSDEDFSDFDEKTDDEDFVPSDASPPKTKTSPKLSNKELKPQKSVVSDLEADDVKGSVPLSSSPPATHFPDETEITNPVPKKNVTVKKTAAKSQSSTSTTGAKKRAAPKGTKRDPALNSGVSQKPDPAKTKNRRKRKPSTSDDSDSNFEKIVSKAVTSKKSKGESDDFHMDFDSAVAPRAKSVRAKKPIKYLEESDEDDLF

What is called IC50 is the concentration needed to halve the response being measured. In general, EC50 refers to the concentration giving half of the maximal effect. `Cc1cc(-c2c(F)cc3c4n[nH]c(=O)c-4cn(C4CC4)c3c2F)cc(C)n1` [Example 6]: the concentration for half-maximal inhibition (IC50) in data set [1] stood at 3.6 µM; in data set [3] it was 7.9 µM. Further, at human topoisomerase II, the concentration giving a half-maximal response (EC50) came to 11 µM. This molecule also gave an MTD in data set [2] (sc) of over 2500 mg/kg.

As for `Cc1cc(-c2c(F)cc3c4nn(CCC5CCCN5C)c(=O)c-4cn(C4CC4)c3c2F)cc(C)n1` (centres unmarked) [Example 21], the IC50 in data set [1] was determined as 0.16 µM; in data set [3] it was 0.33 µM. Moreover, the half-maximal effective concentration (EC50) at human topoisomerase II came to 3.5 µM. Besides, the MTD in data set [2] (iv) worked out at 80 mg/kg.

`Cc1cc(-c2c(F)cc3c4nn([C@H]5CC[C@H](N)CC5)c(=O)c-4cn(C4CC4)c3c2F)cc(C)n1` [Example 56b, 2-(trans-4-aminocyclohexyl)-5-cyclopropyl-6,8-difluoro-2,5 dihydro-7-(2,6-dimethyl-4-pyridinyl)-3H-pyrazolo[4,3-c]quinolin-3-one]: the EC50 on human topoisomerase II was 4.2 µM. In addition, the MTD in data set [2] came out at 550 mg/kg. The IC50 in data set [3] came to 1.5 µM.
